Reference: patent publication US20120202257A1, “LIGE-TYPE ENZYMES FOR BIOCONVERSION OF LIGNIN-DERIVED COMPOUNDS” (priority 2010, published 2012)

B1: ligE: S. paucimobilis beta-etherase, positive control polypeptide (protein)
chain: MARNNTITLYDLQLESGCTISPYVWRTKYALKHKGFDIDIVPGGFTGILERTGGRSERVPVIVDDGEWVLDSWVIAEYLDEKYPDRPMLFEGPTQKNLMKFLDNWLWSTAVGPWFRCYILDYHDLSLPQDRDYVRWSREQWFLGGQRLEDVQAGREDRLPLVPPTLEPFRRILAETKWLGGDQPNFADYSALAVFLWTASVARTPPLTEDDPLRDWLDRGFDLFDGLGRHPGMNPLFGLKLREGDPEPFVRQTGPAGAGGQALNKGPQTTKMPPRVAEKAD
B2: ligE1: N. aromaticivorans putative beta-etherase polypeptide, glutathione S-transferase-like protein, expressed in E. coli (protein)
chain: MAANNTITFYDLALSTGATISPFVWATKYALKHKGFDLDVVPGGFTGILERTGGKTERLPAIVDDGEFVLDSWGIVEYLDAKYPDRPVLIPHESVAATLKALDNWFWNAAVGPWMFCFCQDYRDLSLPQDHEYVTHSREKMLGRKLEEVQAGREERLPKISAALEPLRAALAQHQWLGGSSPNYADYRIMGGILFTASVCKTPVLANDDPLRDWIERCLDLYGGLGRHPGLFPLFGLEQREGDPDLFNRAAGQGGIYKRNTGPESTRAETQRITEGMKK
B3: LigF2: N. aromaticivorans putative beta-etherase polypeptide, glutathione S-transferase-like protein (protein)
chain: MALKYYHAEPLANSLKSMVPLKEKGLAYESIYVDLHKFEQHQPWFTAINPEGQVPVLDHDGTIITHTTVINEYLEDAFPDAQPADAPLRPRDPVGAARMRYWNKFIDEHVMNYVSMHGWHRMVGVIARNIASGDFEKLLESIPLPDQRKKWATARSGFSEADLANATAKIEYALDKVEKQLGETKWLAGDTYTLADINFYSHCGAMVERMFPEMEVARRAPRLCEWRDRVAARPAVAEALKSEDRTAPGLRVWSGEVR
B4: ABD27309.1: N. aromaticivorans putative beta-etherase polypeptide (protein)
chain: MDEVSLYHWEPNANSGKPMLALMEKGVPFSSHYIDMLQFDQHKPEYLAINPQGTIPAMTHNGQVLTESTAIMEYVNDRFDGPDLMPADAQDRWRVRWWMKFMDQWLGPSFSMIGWSVFVGPMVRQRDPAELAAAIDRIPLPERRTAWRKAINGDFSESEMAESRRRVGLGIAKLEEELGKRPYVGSNQYSLADINIFNSTYSLPISQPDLAGKDRTPNIMRWLKRVYTREAVKKTWAMGKTDLAHRYGLIMAEIEG
B5: ABD26530.1: N. aromaticivorans putative beta-etherase polypeptide (protein)
chain: MVIPLGEDNTIMLKLYSFGPAANSMKPLLTVFEKGLDVEKHRLDPAKFEHHTDWFKAINPRGQVPALVDGDKVVTESTVICEYLEDEYPTEVALRPADSFGKAQMRIWTKWVDEYFCWCVSTIGWHRYVGNMVKSLSDAEFEEKVKAIPVIEQQVKWRRAREGFPQDMLDEEMRKIAYSVRKLDDHLADHEWLVPGQYTLADICNFAIANGMQFGFAELVNKQDTPHLVRWIEQINERPAVKQMFAQVELEKLGPRE
B6: LigF: S. paucimobilis beta-etherase, positive control polypeptide (protein)
chain: MTLKLYSFGPGANSLKPLATLYEKGLEFEQVFVDPSKFEQHSDWFKKINPRGQVPALWHDGKVVTESTVICEYLEDVFPESGNSLRPADPFKRAEMRVWTKWVDEYFCWCVSTIGWAFGIKAIAQKMSDEEFEEHINKNVPIPEQQLKWRRARNGFPQEMLDEEFRKVGVSVARLEETLSKQDYLVDTGYSLADICNFAIANGLQRPGGFFGDYVNQEKTPGLCAWLDRINARPAIKEMFEKSKREDLLKRQNEKVA

tested on: Saccharomyces cerevisiae; assay: not given; conditions: cited from earlier work

| Molecule | antifungal activities against the yeast Saccharomyces cerevisiae |
| --- | --- |
| O=C(O)/C=C/c1ccccc1O [o-coumaric acid] | significant antifungal activities |
| COc1cc(CCC(C)=O)ccc1O [vanillylacetone] | significant antifungal activities |
| O=C(O)/C=C/c1ccc(O)cc1 [p-coumaric acid] | significant antifungal activities |
| O=C(O)/C=C/c1cccc(O)c1 [m-coumaric acid] | significant antifungal activities |
| O=C(O)C=Cc1ccccc1 [cinnamic acid] | significant antifungal activities |
| COc1ccc(C=O)cc1OC [Veratraldehyde] | significant antifungal activities |
| COc1cc(C(=O)O)ccc1O [vanillic acid] | significant antifungal activities |

tested on: not listed separately; assay: in vitro biochemical assay for beta-etherase activity on fluorescent substrate MUAV (formation of 4MU), clarified E. coli cell extracts; conditions: E. coli cell extracts expressing the protein; reactions containing 0.1 mM MUAV substrate
Method: This. example describes a method for gene expression in E. coli, as well as beta-etherase biochemical assays. Expression of known and putative beta-etherase genes was performed using 5 ml cultures of the recombinant E. coli strains described herein in Luria Broth medium by induction of gene expression using isopropylthiogalactoside (IPTG) to a final concentration of 0.1 mM. Following induction, and cell harvest, the cells were disrupted using either sonication or the BPER (Invitrogen) cell lysis system.
In vitro reactions were performed in a total volume of 200 ul and contained: 25 mM TrisHCl pH 7.5; 0.5 mM dithiothreitol; 1 mM glutathione; 0.05 mM or 0.1 mM MUAV; 10 ul of clarified cell extract used to initiate the reactions. Following incubation for 2.5 hours at room temperature, a 50 ul sample of the reactions was terminated using 150 uL of 300 mM glycine/NaOH buffer pH 9. The formation of 4 methylumbelliferone (4MU) upon hydrolysis of the aryl ether bond was monitored by the increase in fluorescence at λex=360 nm and λem=450 nm using a Spectramax UV/visible/fluorescent spectrophotometer.
The total protein concentrations of the cell lysates were determined using the BCA reagent system for protein quantification (Pierce). […]

| Molecule | total activity (beta-etherase) [rfu/ug] |
| --- | --- |
| B1 | 7 |
| B2 | 529 |

same assay, conditions: MUAV substrate

| Molecule | beta-etherase activity (in words) |
| --- | --- |
| B3 | beta-etherase activity |
| B4 | beta-etherase activity |
| B5 | beta-etherase activity |
| B2 | much elevated beta-etherase activity |

same assay, conditions: MUAV substrate; LigF-type proteins

| Molecule | total activity (beta-etherase) [rfu/ug] |
| --- | --- |
| B6 | 558 |
| B3 | 1206 |

same assay, conditions: MUAV substrate; listed as ABD26841.1

| Molecule | beta-etherase activity (in words) |
| --- | --- |
| B2 | beta-etherase activity |

tested on: Escherichia coli; assay: not given; conditions: benzaldehyde derivatives, each demonstrated; cited from earlier work

| Molecule | antibacterial activity against Escherichia coli |
| --- | --- |
| COc1cccc(C=O)c1O [2-hydroxy-3-methoxybenzaldehyde] | antibacterial activity |
| O=Cc1c(O)cc(O)cc1O [2,4,6-trihydroxybenzaldehyde] | antibacterial activity |
| COc1cc(O)cc(OC)c1C=O [4-hydroxy-2,6-dimethoxybenzaldehyde] | antibacterial activity |
| O=Cc1cccc(O)c1O [2,3-dihydroxybenzaldehyde] | antibacterial activity |
| O=Cc1ccc(O)c(O)c1O [2,3,4-trihydroxybenzaldehyde] | antibacterial activity |
| O=Cc1cc(O)ccc1O [2,5-dihydroxybenzaldehyde] | antibacterial activity |
| O=Cc1ccc(O)cc1O [2,4-dihydroxybenzaldehyde] | antibacterial activity |
| COc1ccc(O)c(C=O)c1 [2-hydroxy-5-methoxybenzaldehyde] | antibacterial activity |
| O=Cc1ccccc1O [2-hydroxybenzaldehyde] | antibacterial activity |

same assay, conditions: each known; cited from earlier work

| Molecule | antimicrobial activity against Escherichia coli |
| --- | --- |
| COc1cc(C=O)cc(OC)c1O [syringaldehyde] | antimicrobial activity |
| COc1cc(C=O)ccc1O [vanillin] | antimicrobial activity |
| O=Cc1ccc(O)cc1 [4-hydroxybenzaldehyde] | antimicrobial activity |
| O=Cc1ccc(CO)o1 [5-hydroxymethylfurfural] | antimicrobial activity |
| O=Cc1ccco1 [furfural] | antimicrobial activity |
